Data taken from patent US20250115598A1 (Anaxis Pharma Pty Ltd, priority 2021, published 2025).
Like-named read-outs stand apart in the source and are kept apart here.

Legend:
[1] = tested on: U937 human histiocytic leukemia cell line; assay: Cellular assay: inhibition of TSQ induced necroptosis, CellTitre-Glo viability; details: U937 cells, 48 hours, TSQ cocktail, read-out: Inhibition of TSQ-induced necroptosis (IC50 cell-based assay)
Summary of the method: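 U937 cells (20,000/well) treated with compound (10-point, 36 μM top, 1:3) plus TSQ cocktail (hTNF-Fc 100 ng/ml, Smac mimetic 500 nM, Q-VD-OPh 10 μM), 48 h at 37° C., 0.3% DMSO. Viability by CellTitre-Glo ATP luminescence; counter screen without TSQ measured compound-only effects on viability.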

human MLKL (full length) = human MLKL (full length) (Homo sapiens (Human), UniProt Q8NB16); assay: KINOMEscan binding assay, human MLKL (full length)
human MLKL (full length), sequence (Q8NB16 whole entry): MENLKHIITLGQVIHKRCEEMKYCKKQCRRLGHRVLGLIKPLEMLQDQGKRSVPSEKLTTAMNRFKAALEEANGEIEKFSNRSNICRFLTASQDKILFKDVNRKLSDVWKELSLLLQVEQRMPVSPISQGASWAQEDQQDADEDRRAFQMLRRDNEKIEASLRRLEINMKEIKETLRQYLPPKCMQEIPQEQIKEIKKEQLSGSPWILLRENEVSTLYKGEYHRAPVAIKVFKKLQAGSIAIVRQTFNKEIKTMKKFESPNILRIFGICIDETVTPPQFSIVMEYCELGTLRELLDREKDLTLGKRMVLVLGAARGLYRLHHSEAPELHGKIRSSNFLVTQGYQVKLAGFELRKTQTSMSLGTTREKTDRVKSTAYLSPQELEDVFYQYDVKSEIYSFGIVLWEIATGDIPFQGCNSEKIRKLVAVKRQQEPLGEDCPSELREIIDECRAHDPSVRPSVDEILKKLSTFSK
Summary of the method: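 In this assay, compounds displace DNA- or phage-tagged kinase from an immobilized ligand, and eluted kinase is quantified by qPCR.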

U937 cells = assay: Counter screen: cell viability without the TSQ cocktail (off-target effect); parameters: species or system human
Summary of the method: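 U937 cells (20000/well, HT-RPMI + 7.4% FBS) treated with compound (10-point 1:3 dilution from 36 μM, 0.3% DMSO) without the TSQ cocktail for 48 h at 37 °C/5% CO2. Viability read as ATP by CellTiter-Glo luminescence, flagging off-target cytotoxicity.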

[2] = KINOMEscan, Table 21, read-out: Human MLKL (full-length) (KD)
[3] = Table 23, read-out: Off-target effect (IC50 cell-based assay)
[4] = hMLKL, Table 25, read-out: MLKL (KD)
[5] = Homo sapiens, U-937, Table 26, read-out: Off-target effect (IC50 cell-based assay)

| Compound | IC50 ([1]; Table 23) | Kd (human MLKL (full length); [2]) | IC50 (U937 cells; [3]) | IC50 ([1]; Homo sapiens, U-937, Table 26) | Kd (human MLKL (full length); [4]) | IC50 (U937 cells; [5]) |
| --- | --- | --- | --- | --- | --- | --- |
| N-(4-(4-amino-1-methyl-7-(1-(1,2,2-trimethylpiperidin-4-yl)-1H-pyrazol-4-yl)-1H-pyrazolo[4,3-c]pyridin-3-yl)-2-((S)-1-(4-fluorophenyl)ethoxy)phenyl)-1,1-difluoromethanesulfonamide [Compound 113] | < 10 nM | < 1 nM | > 10 µM |  |  |  |
| C[C@H](Oc1cc(-c2nn(C)c3c(-c4cnn(CCCCCCCOc5cccc6c5C(=O)N(C5CCC(=O)NC5=O)C6=O)c4)cnc(N)c23)ccc1NS(=O)(=O)C(F)F)c1ccc(F)cc1 (stereo partly shown) [Compound 1031, N-(4-{4-amino-7-[1-(7-{[2-(2,6-dioxopiperidin-3-yl)-1,3-dioxo-2,3-dihydro-1H-isoindol-4-yl]oxy}heptyl)-1H-pyrazol-4-yl]-1-methyl-1H-pyrazolo[4,3-c]pyridin-3-yl}-2-[(1 S)-1-(4-fluorophenyl)ethoxy]phenyl)-1,1-difluoromethanesulfonamide] |  |  |  | < 1000 nM | 10 to 1000 nM |  |
| Cc1ncsc1-c1ccc(CNC(=O)[C@@H]2C[C@@H](O)CN2C(=O)[C@@H](NC(=O)COCCOCCn2cc(-c3cnc(N)c4c(-c5ccc(NS(=O)(=O)C(F)F)c(O[C@@H](C)c6ccc(F)cc6)c5)nn(C)c34)cn2)C(C)(C)C)cc1 [Compound 1006, (2S,4R)-1-[(2S)-2-(2-{2-[2-(4-{4-amino-3-[4-(difluoromethanesulfonamido)-3-[(1S)-1-(4-fluorophenyl)ethoxy]phenyl]-1-methyl-1H-pyrazolo[4,3-c]pyridin-7-yl}-1H-pyrazol-1-yl)ethoxy]ethoxy}acetamido)-3,3-dimethylbutanoyl]-4-hydroxy-N-{[4-(4-methyl-1,3-thiazol-5-yl)phenyl]methyl}pyrrolidine-2-carboxamide] |  |  |  | < 1000 nM | < 10 nM | 1 to 10 µM |
| Nc1ncc(-c2cnn(C3CCOCC3)c2)c2[nH]nc(-c3ccc(NS(=O)(=O)C(F)F)c(OCc4cccc(Cl)c4)c3)c12 [Compound 131] | 10 to 1000 nM | 1 to 100 nM | > 10 µM |  |  |  |
| Cc1ncsc1-c1ccc(CNC(=O)[C@@H]2C[C@@H](O)CN2C(=O)[C@@H](NC(=O)COCCN2CCC(n3cc(-c4cnc(N)c5c(-c6ccc(NS(=O)(=O)C(F)F)c(O[C@@H](C)c7ccc(F)cc7)c6)nn(C)c45)cn3)CC2)C(C)(C)C)cc1 [Compound 1018, (2S,4R)-1-[(2S)-2-(2-{2-[4-(4-{4-amino-3-[4-(difluoromethanesulfonamido)-3-[(1S)-1-(4-fluorophenyl)ethoxy]phenyl]-1-methyl-1H-pyrazolo[4,3-c]pyridin-7-yl}-1H-pyrazol-1-yl)piperidin-1-yl]ethoxy}acetamido)-3,3-dimethylbutanoyl]-4-hydroxy-N-{[4-(4-methyl-1,3-thiazol-5-yl)phenyl]methyl}pyrrolidine-2-carboxamide] |  |  |  | < 1000 nM | < 10 nM | > 10 µM |
| Cc1ncsc1-c1ccc(CNC(=O)[C@@H]2C[C@@H](O)CN2C(=O)[C@@H](NC(=O)CCCCCCn2cc(-c3cnc(N)c4c(-c5ccc(NS(=O)(=O)C(F)F)c(O[C@@H](C)c6ccc(F)cc6)c5)nn(C)c34)cn2)C(C)(C)C)cc1 [Compound 1008, (2S,4R)-1-[(2S)-2-[7-(4-{4-amino-3-[4-(difluoromethanesulfonamido)-3-[(1 S)-1-(4-fluorophenyl)ethoxy]phenyl]-1-methyl-1H-pyrazolo[4,3-c]pyridin-7-yl}-1H-pyrazol-1-yl)heptanamido]-3,3-dimethylbutanoyl]-4-hydroxy-N-{[4-(4-methyl-1,3-thiazol-5-yl)phenyl]methyl}pyrrolidine-2-carboxamide] |  |  |  | < 1000 nM | < 10 nM | 1 to 10 µM |
| Cc1ncsc1-c1ccc(CNC(=O)[C@@H]2C[C@@H](O)CN2C(=O)[C@@H](NC(=O)COCCN2CCCC(n3cc(-c4cnc(N)c5c(-c6ccc(NS(=O)(=O)C(F)F)c(O[C@@H](C)c7ccc(F)cc7)c6)nn(C)c45)cn3)C2)C(C)(C)C)cc1 (stereo partly drawn) [Compound 1015, (2S,4R)-1-[(2S)-2-(2-{2-[3-(4-{4-amino-3-[4-(difluoromethanesulfonamido)-3-[(1S)-1-(4-fluorophenyl)ethoxy]phenyl]-1-methyl-1H-pyrazolo[4,3-c]pyridin-7-yl}-1H-pyrazol-1-yl)piperidin-1-yl]ethoxy}acetamido)-3,3-dimethylbutanoyl]-4-hydroxy-N-{[4-(4-methyl-1,3-thiazol-5-yl)phenyl]methyl}pyrrolidine-2-carboxamide] |  |  |  | < 1000 nM | < 10 nM | > 10 µM |
| Cc1ncsc1-c1ccc(CNC(=O)[C@@H]2C[C@@H](O)CN2C(=O)[C@@H](NC(=O)CCN2CCCC(n3cc(-c4cnc(N)c5c(-c6ccc(NS(=O)(=O)C(F)F)c(O[C@@H](C)c7ccc(F)cc7)c6)nn(C)c45)cn3)C2)C(C)(C)C)cc1 (stereo partly drawn) [Compound 1014, (2S,4R)-1-[(2S)-2-{3-[3-(4-{4-amino-3-[4-(difluoromethanesulfonamido)-3-[(1S)-1-(4-fluorophenyl)ethoxy]phenyl]-1-methyl-1H-pyrazolo[4,3-c]pyridin-7-yl}-1H-pyrazol-1-yl)piperidin-1-yl]propanamido}-3,3-dimethylbutanoyl]-4-hydroxy-N-{[4-(4-methyl-1,3-thiazol-5-yl)phenyl]methyl}pyrrolidine-2-carboxamide] |  |  |  | < 1000 nM |  | > 10 µM |
